# Entries after “also recorded” stand apart in the source; their conditions may differ.
# What was measured:
# [1] = target: T1, SBC2 (Homo sapiens, UniProt O14508); assay: Isothermal titration calorimetry (ITC), direct titration; format: binding
# T1 construct: SOCS2 (amino acids 32–198); His6 (N, cleaved yes); made in house; host or cells: E. coli BL21(DE3)
# Description: Experiments were performed with ITC200 instrument (Malvern) in 100 mM HEPES pH 7.5, 50 mM NaCl, 0.5 mM TCEP at 298 K. The ITC titration consisted of 0.4 μl initial injection (discarded during data analysis) followed by 19 of 2 μl injections at 120 s interval between injections. 1 mM of the ligands in 2–4% DMSO were titrated into 100 μM SBC2. […] Binding data was subtracted from a control titration where ligand was titrated into buffer, and fitted using a one-set-of-site binding model to obtain dissociation constant (Kd), binding enthalpy (ΔH), and stoichiometry (N) using MicroCal PEAQ-ITC Analysis Software1.1.0.1262 and MicroCal ITC-ORIGIN Analysis Software 7.0 (Malvern).
# [2] = tested on: reduced glutathione (GSH); assay: Glutathione (GSH) reactivity assay; format: physicochemical; settings: 5 mM reduced glutathione (GSH) in potassium phosphate buffer; 5 mM GSH, 37 °C, pH 7.4
# Description: MN551/MN714 (1/10 μM) were incubated at 37 °C with 5 mM GSH in 100 mM potassium phosphate buffer, pH 7.4 (0.1% DMSO). […] Samples were then analyzed with an LC (Shimadzu LC-40)/MS/MS (Triple Quad 6500+). From the mass spectrum, peak area ratios (peak area analyte/peak area of a stable internal standard) were calculated and the percent compound remaining was determined relative to time zero.
# [3] = target: T2, SOCS2 C111S mutant (SBC2 C111S) (Homo sapiens, UniProt O14508, C111S); assay: Intact ESI-MS of recombinant protein, covalent modification; format: biochemical; settings: for % modified: SOCS2 C111S + MN551 (1:1, 50 µM)
# T2 construct: SOCS2 (amino acids 32–198); His6 (N, cleaved yes); made in house; host or cells: E. coli BL21(DE3)
# Description: […] At defined time points 20 µl samples were removed and the protein precipitated by the addition of 80 µl methanol. The precipitated protein was pelleted by centrifugation, washed with 500 µl methanol, and resuspended in an aqueous solution of 15% acetonitrile and 1% TFA. Samples were separated by HPLC on a C3 column using a 10–75% gradient of acetonitrile and analyzed using an Agilent 6130 quadrupole MS. Spectra were deconvoluted and integrated using Agilent LC/MSD ChemStation.
# [4] = target: T1, SBC2; assay: Differential scanning fluorimetry (DSF); format: binding; settings: 5 µM SBC2 + 100 µM MN551
# Description: DSF experiments were performed on a Biorad CFX96 RT-PCR machine. […] of SBC2 were incubated with […] MN551 (2 % DMSO) or DMSO control in 50 mM Tris, pH 8.0, 50 mM NaCl and 6.6 × SYPRO Orange. The temperature was ramped up in 1 °C steps between 25 and 95 °C with 30 s incubation at each step. Melting curves were analyzed by determining the minimum of the first derivative using the Biorad CFX Manager software.
# [5] = In-cell time-resolved 19F-NMR of prodrug unmasking; format: in vitro ADME; settings: human, K562 cell suspension (65% v/v cell content), 37 °C, read-out: half-life time of prodrug unmasking in cells
# Source text: (§1) Although, with the live-cell CETSA setup we could rank the prodrugs for overall potency, we cannot decouple the individual contributions of cellular permeability and prodrug unmasking rate. To understand the rate of unmasking inside the live cells, we developed an in-cell time-resolved ^19F-NMR to monitor the rate of POM group unmasking (Fig. 5). ^19F-NMR is uniquely suited for this task due to the high receptivity of ^19F, low background in biological samples, and remarkable sensitivity of ^19F chemical shifts to their chemical environment[43],[44]. The latter means that even the distant fluorine of MN551 could act as a reporter for the presence of the masking group on the phosphotyrosine moiety. […] While the downfield peak starts off with higher intensity, it loses intensity quickly and within an hour is overtaken by the growing upfield peak. Within 3 h the downfield peak completely disappears and only the upfield peak is observed. […]
# (§2) K562 cells were maintained in IMDM media supplemented with 10% FBS. […] To confirm the identity of the observed species, the lysate was sequentially spiked with 500 µM MN551 and prodrug and measured again. […] All spectra were processed and analyzed using Topspin 4.1.1.
# [6] = tested on: K562 cells; assay: In-cell time-resolved 19F-NMR of prodrug unmasking; format: in vitro ADME; settings: K562 cell suspension, 500 µM, 37 °C
# Source text: as §1, §2
# T2 sequence (Q15370 1-104): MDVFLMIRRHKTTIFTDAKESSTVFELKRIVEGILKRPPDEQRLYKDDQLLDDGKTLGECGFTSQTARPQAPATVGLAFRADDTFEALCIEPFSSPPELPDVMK
# T2 sequence (Q15369 17-112, further chain): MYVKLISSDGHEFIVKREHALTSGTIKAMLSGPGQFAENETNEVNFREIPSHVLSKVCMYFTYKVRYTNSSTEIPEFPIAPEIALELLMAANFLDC
# T2 sequence (O14508 32-198 C111S): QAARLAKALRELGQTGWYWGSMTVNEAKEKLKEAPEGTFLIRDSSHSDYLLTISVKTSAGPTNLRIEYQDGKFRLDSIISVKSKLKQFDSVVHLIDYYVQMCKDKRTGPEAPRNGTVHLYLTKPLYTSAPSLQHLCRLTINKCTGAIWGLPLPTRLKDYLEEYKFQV
# T1 sequence (O14508 32-198): as the sequence (O14508 32-198 C111S) above, with S80C counted along it
# T1 sequence (Q15370 1-104 partner limits assumed): as the sequence (Q15370 1-104) above
# T1 sequence (Q15369 17-112 partner limits assumed): as the sequence (Q15369 17-112, further chain) above
Structure (SMILES),Ki [1] [µM],"Kd ([1]; ITC KD, direct ITC, 298 K) [µM]",half-life [2] [h],covalent reactivity with C111S mutant [3],% modified ([3]; t = 0 min) [%],% modified ([3]; t = 5 min) [%],% modified ([3]; t = 10 min) [%],% modified ([3]; t = 20 min) [%],% modified ([3]; t = 40 min) [%],% modified ([3]; t = 60 min) [%],% modified ([3]; t = 90 min) [%],% modified ([3]; t = 120 min) [%],"ΔTm, shift in the melting temperature of SBC2 [4] [°C]",half-life at 500 µM [5] [h],time to complete disappearance of the prodrug (downfield) peak [6] [h]
O=C(CCl)Nc1cccc(CNC(=O)[C@H](Cc2ccc(OP(=O)(O)O)cc2)NC(=O)Cc2ccc(F)cc2)c1 [MN551],2.2,2.18 ± 0.6,> 1.17,no reactivity; also recorded: does not covalently react,0.0,0.0,0.0,0.0,0.0,0.0,0.0,0.0,6,–,–
CC(C)(C)C(=O)OCOP(=O)(OCOC(=O)C(C)(C)C)Oc1ccc(C[C@H](NC(=O)Cc2ccc(F)cc2)C(=O)NCc2cccc(NC(=O)CCl)c2)cc1 [MN714],–,–,–,–,–,–,–,–,–,–,–,–,–,1 to 1.5,≤ 3

# — paper PMC10564737, “Structure-based design of a phosphotyrosine-masked covalent ligand targeting the E3 ligase SOCS2” (Nature Communications, 2023)
